# Columns and labels:
# [1] = tested on: Parkinson's disease model in mice (MPTP); experiment: Effect on locomotor activity in Parkinson's disease model in mice (MPTP-treated mice); format: in vivo, male C57BL/6 mice; settings: 30 minutes measurement
# Procedure: 1-Methyl-4-phenyl-1,2,3,6-tetrahydropyridine (MPTP) causes symptoms of Parkinson's disease in humans Science, 219, 979 (1983)]. It is reported that an experimental Parkinson's disease model was obtained by administering MPTP to mice [Science, 224, 1451 (1984)]. If a compound is effective on the experimental Parkinson's disease model in mouse, the compound can be expected to have a therapeutic effect on Parkinson's disease.
# The experiment was performed by using several groups of 7-weeks-old male C57BL/6 mice (weighing 20 to 24 g, Japan SLC), each group consisting of 8 mice. MPTP (RBI Co., Ltd. ) dissolved in a physiological saline solution (Otsuka Pharmaceutical Co., Ltd. ) was intraperitoneally administered to each mouse once a day for five consecutive days at a dose of 30 mg/kg. Test compounds were suspended in injectable distilled water (Otsuka Pharmaceutical Co., Ltd.) containing Tween 80 [polyoxyethylene (20) sorbitan monooleate]. […] The amount of active movements of each mouse was measured by using Automex-II (Columbus Instruments International Corp.) for the period of 30 minutes starting 30 minutes after the administration of the test compound. The effect of the compounds was evaluated by comparing the average counts of the active movements of the test compound-administered groups with those of the control groups. […]
# [2] = tested on: Haloperidol-induced catalepsy in mice; experiment: Effect on haloperidol-induced catalepsy; format: in vivo, male ddY mice; settings: 10 mg/kg, oral; for Number of the Animals Showing Remission: five mice, catalepsy score not more than 4; for Remission Rate: rate of decrease in total score based on control group; for Total Score (catalepsy): total of five mice, 25 points at the full (control 25), not more than 20 effective
# Procedure: The experiment was performed by using several groups of 5-weeks-old male ddY mice (weighing 22.to 24 g, Japan SLC), each group consisting of 5 mice. Haloperidol (Janssen Pharmaceutical) suspended in 0.3% CMC was intraperitoneally administered to each mouse at a dose of 1.0 mg/kg. Test compounds were suspended in 0.3% CMC or in injectable distilled water (Otsuka Pharmaceutical Co., Ltd.) containing Tween 80. L-DOPA (Kyowa Hakko Kogyo Co., Ltd.) and benserazide hydrochloride (Kyowa Hakko Kogyo Co., Ltd.) were suspended in 0.3% CMC. One hour after the haloperidol administration, the test compound suspensions and the control suspension [injectable distilled water (Otsuka Pharmaceutical Co., Ltd.) containing Tween 80] containing no test compound were orally administered to separate groups of the mice (0.1 ml per 10 g of body weight). One hour after the administration of the test compound, the forelimbs of each mouse and subsequently the hindlimbs of the same mouse were placed on a 4.5 cm-high, 1.0 cm-wide bar and catalepsy was estimated. […] The catalepsy score and the standard of judgment are shown. below.
# 0: forelimbs less than 5 seconds
# hindlimbs less than 5 seconds
# 2: forelimbs 10 seconds or more
# hindlimbs 5 seconds or more
# hindlimbs 10 seconds or more
# 5: forelimbs 10 seconds or more
# The effect of the compounds was evaluated by the total of the catalepsy scores of five mice in each group (25 points at the full). The groups wherein the total score was not more than 20 point is were estimated to be effective. The number of the animals showing remission against catalepsy is the number of the mice for which the catalepsy score was not more than 4 points.
# The ED50 values were calculated by Probit analysis.
# [3] = tested on: rats with a 6-hydroxydopamine-induced unilateral lesion of the nigrostriatal dopamine pathway; experiment: Augmentation of the contralateral rotation in rats with a 6-hydroxydopamine-induced unilateral lesion of the nigrostriatal dopamine pathway; format: in vivo, male Sprague-Dawley rats; settings: 150 minutes
# Text: When a unilateral lesion of the nigrostriatal pathway is induced by 6-hydroxydopamine in rodents, the sensitivity of dopamine receptors in the denervated striatum is enhanced. Administration of a dopamine […] to the rodents in such a condition induces a rotational behavior to the side contralateral to the lesioned side [Acta Physiol. Scand., 367, 69 (1971)]. This model has been used for a long time as a model for the study of Parkinson's disease and in the screening of drugs for this disease [Neurol. Neurobiol.; 33, 1 (1987)].
# Male Sprague-Dawley rats (weighing 200 to 240 g, Japan SLC) were pretreated with desipramine hydrochloride (25 mg/kg, i.p., Sigma Co.) 30 minutes before surgery to protect noradrenergic neurons. Then, the animals were: anesthetized with sodium pentobarbital (30 mg/kg, i.p., Dainippon Pharm. Co., Ltd.) and the nigrostriatal pathway was lesioned by injection of 6-hydroxydopamine hydrobromide (8 μg, Sigma Co.) into the left medial forebrain bundle. 6-Hydroxydopamine hydrobromide was dissolved in physiological saline containing 0.05% L-ascorbic acid (Wako Pure Chem. Industries, Ltd.) to make 2 μl. of solution and injected over 3 minutes.
# More than 10 days after surgery, each rat was placed in a plastic bowl (30 cm in diameter). […] The number of rotations was counted with an automated rotometer, in which each 180° turn was counted as a rotation. […]
# rid-strain male mice = experiment: Acute toxicity test; format: in vivo; settings: oral, seven days after administration
# Procedure: Test compounds were orally administered to groups of rid-strain male mice weighing 20±1 g, each group consisting of three mice. Seven days after the administration, minimum lethal dose (MLD) of each compound was determined by observing the mortality.
# [4] = tested on: Haloperidol-induced catalepsy in mice; experiment: Effect on haloperidol-induced catalepsy; format: in vivo, male ddY mice; settings: Mus musculus; ten mice at each dose; effective = catalepsy score 3 or less; Probit analysis; read-out: ED50 (50% effective dose)
SMILES,"Amount of Active Movements (average count ± S.E.M) ([1]; 10 mg/kg, oral, MPTP group 41 ± 14.3, normal control 1984 ± 122.3) [count]",Number of the Animals Showing Remission [2],Remission Rate [2] [%],Total Score (catalepsy) [2],"total rotation counts (average count ± S.E.M.), test compound + apomorphine ([3]; 10 mg/kg oral 30 minutes before apomorphine 0.1 mg/kg, s.c., p<0.05) [count]",minimum lethal dose (MLD) (rid-strain male mice),ED50 [4] [mg/kg],"Amount of Active Movements (average count ± S.E.M) ([1]; L-DOPA 300 mg/kg, MPTP group 207 ± 85.5, normal control 1875 ± 77.7, no significant difference vs MPTP-treated group) [count]","total rotation counts (average count ± S.E.M.), apomorphine ([3]; apomorphine 0.1 mg/kg, s.c. without test compound) [count]"
"Nc1nc(Oc2ccccc2)nc2nc(-c3ccco3)nn12 [Compound 1, 7-Amino-2(2-furyl) -5-phenoxy [1,2,4]triazolo[1,5-a]-1,3,5-triazine]",785 ± 87.3,5,80,5,1011 ± 139,greater than 300 mg/kg,1.3,,
"Nc1nc(Oc2ccccc2)nc2cc(-c3ccco3)nn12 [Compound 2, 7-Amino-2-(2-furyl) -5-phenoxypyrazolo [2,3-a]-1,3,5-triazine]",,4,32,17,,greater than 300 mg/kg,,,
"Nc1nc2ccc(Cl)cc2c2nc(-c3ccco3)nn12 [Compound 3, 5-Amino-9-chloro-2-(2-furyl) -1,2,4-triazolo-[1,5-c]quinazoline]",,4,48,13,,,,,
"Nc1nc2nn(Cc3ccc(F)cc3)cc2c2nc(-c3ccco3)nn12 [Compound 4, 5-Amino-8-(4-fluorobenzyl) -2-(2-furyl)pyrazolo-[4,3-e]-1,2,4-triazolo [1,5-c]pyrimidine]",,3,52,12,,,,,
"N[C@@H](Cc1ccc(O)c(O)c1)C(=O)O [L-DOPA, reference compound]",,,,,,,,561 ± 271.01,
"CN1CCc2cccc3c2[C@H]1Cc1ccc(O)c(O)c1-3 [apomorphine, reference compound]",,,,,,,,,706 ± 59

# Source: patent publication US5565460A, “Therapeutic purine agents for parkinson's disease” (Kyowa Hakko Koygo Co., Ltd., priority 1993, dated 1996)
